Measured values as given in patent US11535643B2, “Macrolides with modified desosamine sugars and uses thereof” (President and Fellows of Harvard College, priority 2015, dated 2022).
≈ marks a conversion by molar mass, not a printed value.

Key:
Format in all cases: cell-based
A. baumannii = assay: Broth dilution MIC determination (CLSI) against A. baumannii strains
Source text: (§1) Minimum inhibitory concentrations (MICs) for macrolides described herein have been determined for unique strains of S. aureus, S. pneumoniae, S. pyogenes, E. faecalis, E. coli, A. baumannii, K. pneumoniae, P. aeruginosa, and H. influenzae, including several multidrug-resistant strains, with a special focus on macrolide resistant mechanisms. Azithromycin and solithromycin were included as control compounds. CLSI standard procedures for broth dilution MIC determination were used. Data for exemplary compounds described herein is shown in Tables M1-M7 and in Tables N1-N4.

P. aeruginosa = assay: Broth dilution MIC determination (CLSI) against P. aeruginosa strains
Source text: as §1

S. aureus = assay: Broth dilution MIC determination (CLSI) against S. aureus strains
Source text: as §1

S. pneumoniae = assay: Broth dilution MIC determination (CLSI) against S. pneumoniae strains
Source text: as §1

K. pneumoniae = assay: Broth dilution MIC determination (CLSI) against K. pneumoniae strains
Source text: as §1, with “used.” for “used. Data for exemplary compounds described herein is shown in Tables M1-M7 and in Tables N1-N4.”

E. faecalis = assay: Broth dilution MIC determination (CLSI) against E. faecalis strains
Source text: as §1

E. coli = assay: Broth dilution MIC determination (CLSI) against E. coli strains
Source text: as §1

S. pyogenes = assay: Broth dilution MIC determination (CLSI) against S. pyogenes strains
Source text: as §1

[1] = A. baumannii ATCC19606, strain MP-15 (Table N2)
[2] = A. baumannii clinical, strain MP576 (Table N2)
[3] = A. baumannii clinical, strain MP577 (Table N2)
[4] = P. aeruginosa ATCC27853, strain MP-3 (Table N2)
[5] = P. aeruginosa PAO1, strain MP-7 (Table N2)
[6] = P. aeruginosa PAO1:mex, strain MP-8 (Table N2)
[7] = S. aureus (MRSA) GISA USA600, strain MP-619 UNT-120 (Table N2)
[8] = S. aureus (MRSA) ST-228 cErm, strain MP-513 (Table N2)
[9] = S. aureus (MRSA) USA100, strain MP-618 UNT-096 (Table N2)
[10] = S. aureus (MRSA) USA300, strain MP-549 (Table N2)
[11] = S. aureus (MRSA) ermA phenotype, strain MP-620 UNT-146 (Table N2)
[12] = S. aureus ATCC29213, strain MP-12 (Table N2)
[13] = S. aureus ATCCBAA-977, strain MP-17 (Table N2)
[14] = S. pneumoniae ATCC49619, strain MP-21 (Table N2)
[15] = S. pneumoniae mefA, strain MP-626 UNT-038 (Table N2)
[16] = S. pneumoniae mefA, strain MP-627 UNT-039 (Table N2)
[17] = K pneumomae ATCC10031, strain MP-14 (Table N2)
[18] = K. pneumoniae clinical, strain MP546 (Table N2)
[19] = K. pneumoniae clinical, strain MP548 (Table N2)
[20] = E. faecalis ATCC29212, strain MP-24 (Table N2)
[21] = E. faecalis van resistant, strain UNT-039 (Table N2)
[22] = E. coli ATCC25922, strain MP-4 (Table N2)
[23] = E. coli ATCC25922:tolC, strain MP-9 (Table N2)
[24] = E. coli clinical, strain MP541 (Table N2)
[25] = E. coli clinical-cErm, strain MP532 (Table N2)
[26] = S. pyogenes ATCC19615, strain MP-19 (Table N2)
[27] = S. pyogenes mac resistant, strain MP-625 UNT-014 (Table N2)

## CCC1OC(=O)C(C)C(=O)C(C)C(OC2OC(C)CC(NCc3cccnc3)C2O)C(C)(OC)CC(C)CNC(C)C2N(CCCCn3cc(-c4cccc(N)c4)nn3)C(=O)OC12C (stereo not drawn) [FSM-120384]
A. baumannii; [1]
  MIC: 64 µg/mL (≈ 71.8 µM)
A. baumannii; [2]
  MIC: >64 µg/mL
A. baumannii; [3]
  MIC: >64 µg/mL
P. aeruginosa; [4]
  MIC: >64 µg/mL
P. aeruginosa; [5]
  MIC: >64 µg/mL
P. aeruginosa; [6]
  MIC: >64 µg/mL
S. aureus; [7]
  MIC: >64 µg/mL
S. aureus; [8]
  MIC: >64 µg/mL
S. aureus; [9]
  MIC: >64 µg/mL
S. aureus; [10]
  MIC: >64 µg/mL
S. aureus; [11]
  MIC: >64 µg/mL
S. aureus; [12]
  MIC: >64 µg/mL
S. aureus; [13]
  MIC: >64 µg/mL
S. pneumoniae; [14]
  MIC: 2 µg/mL (≈ 2.24 µM)
S. pneumoniae; [15]
  MIC: 0.5 µg/mL (≈ 0.561 µM)
S. pneumoniae; [16]
  MIC: 1 µg/mL (≈ 1.12 µM)
K. pneumoniae; [17]
  MIC: 16 µg/mL (≈ 18 µM)
K. pneumoniae; [18]
  MIC: >64 µg/mL
K. pneumoniae; [19]
  MIC: >64 µg/mL
E. faecalis; [20]
  MIC: 32 µg/mL (≈ 35.9 µM)
E. faecalis; [21]
  MIC: >64 µg/mL
E. coli; [22]
  MIC: >64 µg/mL
E. coli; [23]
  MIC: 8 µg/mL (≈ 8.98 µM)
E. coli; [24]
  MIC: >64 µg/mL
E. coli; [25]
  MIC: >64 µg/mL
S. pyogenes; [26]
  MIC: 1 µg/mL (≈ 1.12 µM)
S. pyogenes; [27]
  MIC: 4 µg/mL (≈ 4.49 µM)

## CCC1OC(=O)C(C)C(=O)C(C)C(OC2OC(C)CC(N3CCOC3CO)C2O)C(C)(OC)CC(C)CNC(C)C2N(CCCCn3cc(-c4cccc(N)c4)nn3)C(=O)OC12C (stereo not drawn) [FSM-120380]
A. baumannii; [1]
  MIC: >64 µg/mL
A. baumannii; [2]
  MIC: >64 µg/mL
A. baumannii; [3]
  MIC: >64 µg/mL
P. aeruginosa; [4]
  MIC: >64 µg/mL
P. aeruginosa; [5]
  MIC: >64 µg/mL
P. aeruginosa; [6]
  MIC: >64 µg/mL
S. aureus; [7]
  MIC: >64 µg/mL
S. aureus; [8]
  MIC: >64 µg/mL
S. aureus; [9]
  MIC: >64 µg/mL
S. aureus; [10]
  MIC: >64 µg/mL
S. aureus; [11]
  MIC: >64 µg/mL
S. aureus; [12]
  MIC: >64 µg/mL
S. aureus; [13]
  MIC: >64 µg/mL
S. pneumoniae; [14]
  MIC: 8 µg/mL (≈ 9.03 µM)
S. pneumoniae; [15]
  MIC: 4 µg/mL (≈ 4.51 µM)
S. pneumoniae; [16]
  MIC: 4 µg/mL (≈ 4.51 µM)
K. pneumoniae; [17]
  MIC: >64 µg/mL
K. pneumoniae; [18]
  MIC: >64 µg/mL
K. pneumoniae; [19]
  MIC: >64 µg/mL
E. faecalis; [20]
  MIC: 64 µg/mL (≈ 72.2 µM)
E. faecalis; [21]
  MIC: >64 µg/mL
E. coli; [22]
  MIC: >64 µg/mL
E. coli; [23]
  MIC: 32 µg/mL (≈ 36.1 µM)
E. coli; [24]
  MIC: >64 µg/mL
E. coli; [25]
  MIC: >64 µg/mL
S. pyogenes; [26]
  MIC: 8 µg/mL (≈ 9.03 µM)
S. pyogenes; [27]
  MIC: 32 µg/mL (≈ 36.1 µM)

## CCC1OC(=O)C(C)C(=O)C(C)C(OC2OC(C)CC(N(C)Cc3cccnc3)C2O)C(C)(OC)CC(C)CNC(C)C2N(CCCCn3cc(-c4cccc(N)c4)nn3)C(=O)OC12C (stereo not drawn) [FSM-120385]
A. baumannii; [1]
  MIC: 16 µg/mL (≈ 17.7 µM)
A. baumannii; [2]
  MIC: >64 µg/mL
A. baumannii; [3]
  MIC: 64 µg/mL (≈ 70.7 µM)
P. aeruginosa; [4]
  MIC: >64 µg/mL
P. aeruginosa; [5]
  MIC: >64 µg/mL
P. aeruginosa; [6]
  MIC: 32 µg/mL (≈ 35.4 µM)
S. aureus; [7]
  MIC: >64 µg/mL
S. aureus; [8]
  MIC: >64 µg/mL
S. aureus; [9]
  MIC: >64 µg/mL
S. aureus; [10]
  MIC: 16 µg/mL (≈ 17.7 µM)
S. aureus; [11]
  MIC: >64 µg/mL
S. aureus; [12]
  MIC: 4 µg/mL (≈ 4.42 µM)
S. aureus; [13]
  MIC: 4 µg/mL (≈ 4.42 µM)
S. pneumoniae; [14]
  MIC: 0.06 µg/mL (≈ 0.0663 µM)
S. pneumoniae; [15]
  MIC: 0.125 µg/mL (≈ 0.138 µM)
S. pneumoniae; [16]
  MIC: 0.25 µg/mL (≈ 0.276 µM)
K. pneumoniae; [17]
  MIC: 8 µg/mL (≈ 8.84 µM)
K. pneumoniae; [18]
  MIC: >64 µg/mL
K. pneumoniae; [19]
  MIC: >64 µg/mL
E. faecalis; [20]
  MIC: 1 µg/mL (≈ 1.1 µM)
E. faecalis; [21]
  MIC: >64 µg/mL
E. coli; [22]
  MIC: 64 µg/mL (≈ 70.7 µM)
E. coli; [23]
  MIC: 4 µg/mL (≈ 4.42 µM)
E. coli; [24]
  MIC: 64 µg/mL (≈ 70.7 µM)
E. coli; [25]
  MIC: >64 µg/mL
S. pyogenes; [26]
  MIC: <0.03 µg/mL
S. pyogenes; [27]
  MIC: 1 µg/mL (≈ 1.1 µM)
